Measured values reported in ChEMBL document CHEMBL5518186, “Discovery of the cereblon-recruiting tubulin PROTACs effective in overcoming Taxol resistance in vitro and in vivo” (Eur J Med Chem, 2024).
The source made the active and inactive calls. The rule behind the calls is not given here.

How the values were obtained:
[1] = biological target: Protein cereblon-alpha tubulin (Homo sapiens) (UniProt P0DPH7+P68366+Q71U36+P68363+Q9BQE3+Q6PEY2+A6NHL2+Q9NY65+Q96SW2); assay: Protac activity at CRBN/alpha-tubulin in human A549/Taxol cells assessed as reduction in alpha-tubulin level at 0.25 uM pretreated with CA-4 for 2 hrs followed by compound addition and measured after 48 hrs by immunoblotting analysis; type: cell-based
A549/TR = assay: Induction of cell cycle arrest in human A549/Taxol cells assessed as accumulation of cells at S phase at 0.05 uM incubated for 24 hrs by PI staining based flow cytometry analysis (reference value: 2.85%); type: functional
HepG2 [2] = assay: Inhibition of cell proliferation in human HepG2 cells; type: functional, cell-based
HepG2 [3] = assay: Inhibition of cell migration in human HepG2 cells; type: functional, cell-based

SMILES: COc1ccc(/C=C\c2cc(OC)c(OC)c(OC)c2)cc1OC(=O)CCCNc1cccc2c1C(=O)N(C1CCC(=O)NC1=O)C2=O (centres undefined)
- Activity [1]: inactive
- Activity (A549/TR): 3.85%
- inhibition (HepG2 [2]): Active
- inhibition (HepG2 [3]): Dose-Dependent Effect
